From patent US12485147B2, “Method for producing cell mass including pituitary tissue, and cell mass thereof” (SUMITOMO CHEMICAL COMPANY, LIMITED, priority 2017, dated 2025)

How the values were obtained:
Assay type in all cases: cell-based
[1] = tested on: Human iPS cells (HC-6 #10 strain); assay: Cell mass from human iPS cells using BMP signal transduction pathway inhibiting substance (K02288) after addition of BMP4; bright field observation and immunostaining; conditions: K02288 300 nM added on day 3, 6 or 10; day 28
Method: Human iPS cells (HC-6 #10 strain, obtained from RIKEN) were cultured under feeder-free conditions according to the method described in Scientific Reports, 4, 3594 (2014). As the feeder-free medium, StemFit medium was used and, as the feeder-free scaffold, Laminin 511-E8 was used.
(§1) Specific maintenance culturing operation was performed in the same manner as in Example 1.
The thus-prepared subconfluent human iPS cells were washed with PBS, subjected to an enzyme treatment using Accumax, a serum-free medium for differentiation induction was added, and the cells were scraped from the surface of the culture dish by using a cell scraper and dispersed into single cells by pipetting. Thereafter, the aforementioned human ES cells dispersed into single cells were suspended in 100 μl of a serum-free medium at 9×10^3 cells per well of a non-cell-adhesive 96-well culture plate (PrimeSurface 96V-bottom plate, manufactured by SUMITOMO BAKELITE), and cultured in suspension under the conditions of 37° C., 5% CO2. […]

[2] = tested on: Human ES cells (KhES-1 strain); assay: Addition conditions of Sonic hedgehog signal transduction pathway activating substance (SAG) in production of cell mass containing pituitary tissue; bright field observation; conditions: day 28
Method: (§2) Human ES cells (KhES-1 strain, obtained from Kyoto University) were cultured under feeder-free conditions according to the method described in Scientific Reports, 4, 3594 (2014). As the feeder-free medium, StemFit medium was used and, as the feeder-free scaffold, Laminin 511-E8 was used.
as §1
(§3) Thereafter, suspension culturing in a 96 well plate was started under conditions similar to those in Example 1.
A serum-free medium not containing Y27632 and containing IWP-2, SB-431542, BMP4, and SAG was added at 100 μl per well on day 2 from the start of suspension culturing. BMP4 was added at 3 nM to the medium so that the final concentration in the well would be 1.5 nM. SAG was added at a final concentration of 100, 300, 500, 700 nM, 1, 2, 5 μM as a Sonic hedgehog signal transduction pathway activating substance. The condition without addition of a Sonic hedgehog signal transduction pathway activating substance during the suspension culturing period was taken as the control (-SAG condition, FIG. 5A).
A half amount of the medium was changed with a serum-free medium not containing Y27632 or BMP4, and containing IWP-2, SB-431542, each concentration of SAG on days 6, 10, 13, 17, 21, 24 from the start of suspension culturing. […]

[3] = tested on: Human ES cells (KhES-1 strain); assay: Effect of compound treatment before differentiation induction in production of cell mass containing pituitary tissue; bright field observation; conditions: day 28
Method: Human ES cells (KhES-1 strain) were cultured under feeder-free conditions according to the method described in Scientific Reports, 4, 3594 (2014). As the feeder-free medium, StemFit medium was used and, as the feeder-free scaffold, Laminin 511-E8 was used. Specific maintenance culturing operation was performed in the same manner as in Example 1. As a pre-treatment for differentiation induction of the cultured cells, cells under 4 conditions were maintenance cultured under conditions in which, condition in which nothing is simultaneously added with medium change with […] medium (Control), conditions in which 300 nM SAG alone is added (+300 nM SAG), conditions in which 5 μM SB-431542 alone is added (+5 μM SB-431542), and conditions in which SAG and SB431542 are simultaneously added (+SAG/SB) at 6 days after seeding. The next day of the above-mentioned treatment, human ES cells under 4 conditions that reached subconfluence were each subjected to differentiation induction by suspension culturing into a cell mass containing pituitary tissue according to the method described in Example 1. Bright field observation was performed under an inverted microscope on day 28 from the start of suspension culturing (FIGS. 6A-D).

[4] = tested on: Human ES cells (KhES-1 strain); assay: Timing of addition of BMP4 in production of cell mass from human ES cells; bright field observation; conditions: for structure of cell mass (bright field): observed day 10
Method: as §2, §1, §3
The condition without addition of a BMP signal transduction pathway activating substance during the suspension culturing period was taken as the control (-BMP4 condition, FIG. 3A). Thereafter, in the condition with the addition of a BMP signal transduction pathway activating substance on days 1, 2 or 3 from the start of suspension culturing (Day1-3+BMP4 condition, FIGS. 3B-D), a serum-free medium not containing Y27632 and containing IWP-2, SB-431542, BMP4 was added at 100 μl per well. BMP4 was added at 3 nM to the medium so that the final concentration in the well would be 1.5 nM. […] On day 10 from the start of suspension culturing, bright field observation was performed using an inverted microscope (manufactured by KEYENCE CORPORATION, BIOREVO) (FIGS. 3A-D).

[5] = tested on: Human ES cells (KhES-1 strain); assay: Addition concentration of BMP4 in production of cell mass containing pituitary tissue; bright field observation; conditions: 0.5 nM, 1.5 nM or 5 nM BMP4 added once on day 2; day 28
Method: as §2, §1, §3
A serum-free medium not containing Y27632 and containing IWP-2, SB-431542, BMP4, and SAG was added at 100 μl per well on day 2 from the start of suspension culturing. In this case, the amount of BMP4 to be added was under 4 conditions of 0.5 nM, 1.5 nM, 5 nM and no addition control. BMP4 was added at twice the concentration set for the medium so that the final concentration set for the well could be achieved. SAG was added at 4 μM to the medium so that the final concentration in the well would be 2 μM.
A half amount of the medium was changed with a serum-free medium not containing Y27632 or BMP4 and containing IWP-2, SB-431542 and SAG on days 6, 10, 13, 17, 21 and 24 from the start of suspension culturing.
Bright field observation was performed under an inverted microscope on day 28 from the start of suspension culturing (FIGS. 8A-D).

## COc1cc(-c2cc(-c3cccc(O)c3)cnc2N)cc(OC)c1OC [K02288, 3-[6-amino-5-(3,4,5-trimethoxyphenyl)-3-pyridinyl]-phenol]
[1]
  cell mass formation (bright field): a cell mass in which nonneural epithelial tissue surrounds neural tissue of the center part was formed

## CNC1CCC(N(Cc2cccc(-c3ccncc3)c2)C(=O)c2sc3ccccc3c2Cl)CC1 (stereo not shown) [SAG]
[2]; SAG 100 nM, 300 nM, 500 nM, 700 nM, 1 μM or 2 μM compared with 5 μM
  size of cell mass and formation of pituitary tissue on the surface: the size of the cell mass was larger and formation of pituitary tissue on the surface of cell mass was fine
[2]; SAG 100, 300, 500, 700 nM, 1, 2, 5 μM added on day 2, compared with no SAG
  structure of cell mass (bright field): cell masses with the nonneural epithelial tissue invaginated like Rathke's pouch on the surface and containing neuroepithelium-like tissue and mesenchymal cells in the inside
[3]; pre-treatment with 300 nM SAG alone vs no addition
  size of cell mass: cell mass became large
[3]; pre-treatment with 300 nM SAG alone
  presence of mesenchymal cell: the presence of a mesenchymal cell could also be confirmed

B1: BMP4: BMP protein; BMP signal transduction pathway activating substance (protein, UniProt P12644 293-408, looked up)
Bone morphogenetic protein 4: SPKHHSQRARKKNKNCRRHSLYVDFSDVGWNDWIVAPPGYQAFYCHGDCPFPLADHLNSTNHAIVQTLVNSVNSSIPKACCVPTELSAISMLYLDEYDKVVLKNYQEMVVEGCGCR
[4]; BMP4 1.5 nM
  effective timing of addition from start of suspension culturing for formation of cell mass coated with nonneural epithelial tissue: ≤ 72 h
[4]; BMP4 1.5 nM added on day 1 or day 2
  structure of cell mass (bright field): cell masses containing neural tissue and nonneural epithelial tissue and having a two-layer structure in which a center part with a neuroepithelium-like structure is covered with a nonneural epithelium-like layer were formed
[4]; BMP4 1.5 nM added on day 3 (and day 6)
  structure of cell mass (bright field): outer nonneural epithelium-like tissue was not formed
[4]; BMP4 added on day 2 compared with day 1, day 10
  size of embryoid body: larger than the embryoid body obtained under the condition with the addition of BMP4 on day 1
[5]
  nonneural epithelial structure on surface of cell mass: a nonneural epithelial structure was formed on the surface of the cell mass
